Results as given in patent publication US8138207B2, “Aminocarbonyl-substituted 8-N-benzimidazoles, methods for their preparation and their use in pharmaceutical compositions” (Sanofi-Aventis, priority 2005, dated 2012).
Structures can show the parent of a compound that is named as a salt.

Target: T1, DPP-IV from porcine kidneys (Sus scrofa, UniProt P22411)
T1 construct: DPP-IV from porcine kidneys (Sigma, Munich); purchased Sigma, Munich; host or cells: porcine kidney tissue
Assay: Measurement of the DPP-IV activity (fluorimetric, H-Ala-Pro-AFC substrate)
Type: biochemical
Details: substrate H-Ala-Pro-AFC 15 μM, Tris/HCl pH 7.4, room temperature
Procedure: Measurement of the DPP-IV Activity:
DPP-IV from porcine kidneys (Sigma, Munich)
H-Ala-Pro-AFC (Bachem, Weil am Rhein)
DPP-IV (1 mU/ml, end concentration)
H-Ala-Pro-AFC (15 μm end concentration)
in Tris/HCl (40 mM, pH 7.4), total volume 0.2 ml
The reaction was performed at room temperature for different periods (typically 10 minutes) and stopped at the end of the reaction by adding 20 μl of ZnCl2 (1 M). The conversion of H-Ala-Pro-AFC was determined fluorimetrically by measuring the emission at 535 nm on excitation at 405 nm. In the case of addition of inhibitors, the buffer volume added was adjusted such that a total volume of the test mixture of 200 μl maintained.
% inhibition at a fixed concentration was calculated as follows: (1-enzyme activityinhibited reaction/enzyme activityuninhibited reaction)×100
IC50 values for inhibitors were determined by varying the inhibitor concentrations in the case of the specified substrate concentration of 15 μM. Ki and Km values were determined by corresponding variation of substrate and inhibitor concentration as described (Dixon, M. and Webb, E. C. (1979) Enzymes, third edition, pp. 47-206, Academic Press). The values for Km, IC50 and Ki were calculated using a commercially available software package (Leatherbarrow, R. J. (1992) GraFit Version 3.0, Erithacus Software Ltd. Staines, U.K.).

T1 sequence (P22411 whole entry): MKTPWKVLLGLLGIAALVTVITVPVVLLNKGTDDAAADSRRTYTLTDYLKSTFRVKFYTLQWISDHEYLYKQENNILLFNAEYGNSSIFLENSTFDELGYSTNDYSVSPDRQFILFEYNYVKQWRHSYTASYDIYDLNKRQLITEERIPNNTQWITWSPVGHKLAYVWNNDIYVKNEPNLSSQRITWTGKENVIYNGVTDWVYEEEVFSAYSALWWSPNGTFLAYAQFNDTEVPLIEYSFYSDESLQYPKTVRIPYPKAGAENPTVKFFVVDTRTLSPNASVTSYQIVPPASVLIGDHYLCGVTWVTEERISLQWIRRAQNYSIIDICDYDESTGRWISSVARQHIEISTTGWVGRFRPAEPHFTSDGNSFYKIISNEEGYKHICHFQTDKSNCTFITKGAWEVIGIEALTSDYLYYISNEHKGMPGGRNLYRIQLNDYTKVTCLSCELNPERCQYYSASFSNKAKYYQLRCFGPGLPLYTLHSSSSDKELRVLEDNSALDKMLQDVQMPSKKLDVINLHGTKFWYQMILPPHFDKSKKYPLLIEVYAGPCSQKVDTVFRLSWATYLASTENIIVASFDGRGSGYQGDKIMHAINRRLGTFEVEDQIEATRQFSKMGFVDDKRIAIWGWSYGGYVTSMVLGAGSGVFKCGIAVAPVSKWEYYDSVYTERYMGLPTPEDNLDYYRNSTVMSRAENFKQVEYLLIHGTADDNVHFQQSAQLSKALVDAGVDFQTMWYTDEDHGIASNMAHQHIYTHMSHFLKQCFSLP

Row | Structure (SMILES) | IC50 [nM]
1 | CC(C)=CCn1c(N2CCC[C@@H](N)C2)nc2ccc(NC(=O)c3ccccc3)cc21 [Example 1, R—N-[2-(3-Aminopiperidin-1-yl)-1-(3-methylbut-2-enyl)-1H-benzimidazol-6-yl]-benzamide trifluoroacetic acid salt] | 2500
2 | CC(C)=CCn1c(N2CCC[C@@H](N)C2)nc2ccc(NC(=O)Cc3ccccc3)cc21 [Example 2] | 2700
